The values that follow come from patent US7452880B2, “Substituted pyrazolo [3,4-d] pyrimidines and methods of using the same” (priority 2004, dated 2008).

One data set addresses T1, p38 MAP kinase (Homo sapiens, UniProt Q16539).
T1 construct: made in house; host or cells: E. coli (co-expressed with SEK-1 and MEKK to obtain the phosphorylated form)
As to the kind of experiment: p38 (MAP) kinase in vitro assay (transfer of γ-33P-phosphate from ATP to Myelin Basic Protein). The class given is biochemical. The following applies: phosphorylated recombinant p38 MAP kinase, MBP substrate, γ-33P-ATP, 30° C. The protocol:
This example illustrates a p38 (MAP) kinase in vitro assay useful for evaluating the compounds of the invention.
The p38 MAP kinase inhibitory activity of compounds of this invention in vitro was determined by measuring the transfer of the γ-phosphate from γ-^33P-ATP by p-38 kinase to Myelin Basic Protein (MBP), using a minor modification of the method described in Ahn, et al., J. Biol. Chem. 266:4220-4227 (1991).
The phosphorylated form of the recombinant p38 MAP kinase was co-expressed with SEK-1 and MEKK in E. Coli (see, Khokhlatchev, et al., J. Biol. Chem. 272:11057-11062 (1997)) and then purified by affinity chromatography using a Nickel column.
The phosphorylated p38 MAP kinase was diluted in kinase buffer (20 mM 3-(N-morpholino)propanesulfonic acid, pH 7.2, 25 mM β-glycerol phosphate, 5 mM ethylene glycol-bis(beta-aminoethyl ether)-N,N,N′,N′-tetraacetic acid, 1 mM sodium ortho-vanadate, 1 mM dithiothreitol, 40 mM magnesium chloride). Test compound dissolved in DMSO or only DMSO (control) was added and the samples were incubated for 10 min at 30° C. The kinase reaction was initiated by the addition of a substrate cocktail containing MBP and γ-^33P-ATP. […] The phosphorylated MBP was then separated from the residual γ-^33P-ATP using a phosphocellulose membrane (Millipore, Bedfrod, Mass.) and quantitated using a scintillation counter (Packard, Meriden, Conn.).

T1 sequence (Q16539 whole entry): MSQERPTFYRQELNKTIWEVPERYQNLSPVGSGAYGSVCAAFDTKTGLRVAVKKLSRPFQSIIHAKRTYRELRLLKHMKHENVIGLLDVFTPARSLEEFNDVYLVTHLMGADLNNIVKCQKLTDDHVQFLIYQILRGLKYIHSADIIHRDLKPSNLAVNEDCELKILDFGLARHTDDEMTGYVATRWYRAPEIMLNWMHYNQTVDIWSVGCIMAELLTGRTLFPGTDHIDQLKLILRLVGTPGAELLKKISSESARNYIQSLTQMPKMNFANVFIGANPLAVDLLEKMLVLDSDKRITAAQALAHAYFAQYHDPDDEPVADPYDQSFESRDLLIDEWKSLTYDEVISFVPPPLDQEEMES

Usually IC50 stands for the concentration needed to halve the response being measured. With `Fc1ccc(Oc2ncc3c(-c4ccccc4Cl)n[nH]c3n2)c(F)c1` [Compound 3, 3-(2-Chloro-phenyl)-6-(2,4-difluoro-phenoxy)-1H-pyrazolo[3,4-d]pyrimidine], the IC50 at p38 MAP kinase was around 10 nM.

Usually melting point stands for the temperature of the solid-liquid transition. The molecule `FC(F)(F)c1ccccc1Oc1ncc2c(-c3ccccc3Cl)n[nH]c2n1` [Compound 13, 3-(2-Chloro-phenyl)-6-(2-trifluoromethyl-phenoxy)-1H-pyrazolo[3,4-d]pyrimidine] had a melting point of 55.3 to 56.1 °C.

Molecule `Clc1ccccc1Oc1ncc2c(-c3cccs3)n[nH]c2n1` [Compound 22, 6-(2-Chloro-phenoxy)-3-thiophen-2-yl-1H-pyrazolo[3,4-d]pyrimidine] registered a melting point of 221.3 to 223.1 °C.

The molecule `COc1ccc(F)c(-c2n[nH]c3nc(Oc4ccc(F)cc4F)ncc23)c1` [Compound 64, 6-(2,4-Difluoro-phenoxy)-3-(2-fluoro-5-methoxy-phenyl)-1H-pyrazolo[3,4-d]pyrimidine] yielded a melting point of 177.6 to 183.2 °C.

In turn, `COc1ccccc1-c1n[nH]c2cc(Oc3ccc(F)cc3F)cnc12` [Compound 98, 6-(2,4-Difluoro-phenoxy)-3-(2-methoxy-phenyl)-1H-pyrazolo[4,3-b]pyridine] showed a melting point of 143.2 to 144.9 °C.
